Measurements as given in PMC10202811 (Nature Medicine, 2023).
Like-named read-outs stand apart in the source and are kept apart here.

Assay: Plasma pharmacokinetics of lorlatinib at steady state (LC-MS/MS, non-compartmental analysis)
Assay type: in vivo, human
Conditions: human; for Cmax: read-out: Cmax; for Tmax: read-out: Tmax
From the text: Lorlatinib was isolated from human plasma by a liquid-iquid extraction procedure. […] A linear-log trapezoidal method was used [NT] A best-fit method was used to estimate terminal elimination and to extrapolate any plasma concentration versus time profiles to compute [NT].

[1] = in vivo, 115 mg/m2, Cycle 1 Day 1, Cohort B2, 115 mg/m2 per dose
[2] = in vivo, 115 mg/m2, Cycle 1 Day 1, Cohort A1, 115 mg/m2 per dose, individual patients
[3] = in vivo, 115 mg/m2, Cycle 1 Day 1, patient N0773, Cohort B2, 115 mg/m2 per dose, Dose 75
[4] = in vivo, 115 mg/m2, Cycle 1 Day 15, Cohort A1, 115 mg/m2 per dose, individual patients
[5] = in vivo, 115 mg/m2, Cycle 1 Day 15, patient N0773, Cohort B2, 115 mg/m2 per dose, Dose 75
[6] = plasma, oral, 45 mg/m2, Cohort A1, 45 mg/m2 per dose, C1D15, Geometric Mean, N 3
[7] = plasma, oral, 45 mg/m2, Cohort A1, 45 mg/m2 per dose, C1D15, Median, N 3
[8] = plasma, oral, 45 mg/m2, Cycle 1 Day 1, Cohort A1, 45 mg/m2 per dose, individual patients
[9] = plasma, oral, 60 mg/m2, Cohort A1, 60 mg/m2 per dose, C1D15, Median, N 3

Structure (SMILES): C[C@H]1Oc2cc(cnc2N)-c2c(nn(C)c2C#N)CN(C)C(=O)c2ccc(F)cc21 [Lorlatinib, (10R)-7-amino-12-fluoro-2,10,16-trimethyl-15-oxo-10,15,16,17-tetrahydro-2H-8,4-(metheno)pyrazolo[4,3-h][2,5,11]-benzoxadiazacyclotetradecine-3-carbonitrile]
- AUC (in vivo, 115 mg/m2, Cycle 1 Day 1, Cohort B2, 115 mg/m2 per dose, read-out: AUCall): 17700 ng·h/mL
- Cmax [1]: 2320 ng/mL
- Tmax [1]: 1 h
- AUC(0-t) [2]: 14700 ng·h/mL
- MRT last [2]: 8.5 h
- AUC (in vivo, 115 mg/m2, Cycle 1 Day 1, Cohort A1, 115 mg/m2 per dose, individual patients, read-out: AUCall): 14700 ng·h/mL
- Cmax [2]: 1440 ng/mL
- Tmax [2]: 2 h
- AUC(0-t) [3]: 10800 ng·h/mL
- MRT last [3]: 8.24 h
- AUC (in vivo, 115 mg/m2, Cycle 1 Day 1, patient N0773, Cohort B2, 115 mg/m2 per dose, Dose 75, read-out: AUCall): 10800 ng·h/mL
- Cmax [3]: 1660 ng/mL
- MRT inf (in vivo, 115 mg/m2, Cycle 1 Day 15, Cohort A1, 115 mg/m2 per dose, read-out: MRTINF_obs): 11.7 h
- MRT inf (in vivo, 115 mg/m2, Cycle 1 Day 15, Cohort A1, 115 mg/m2 per dose, read-out: MRTINF_pred): 11.7 h
- MRT inf (in vivo, 115 mg/m2, Cycle 1 Day 15, Cohort B2, 115 mg/m2 per dose, read-out: MRTINF_obs): 13.5 h
- MRT inf (in vivo, 115 mg/m2, Cycle 1 Day 15, Cohort B2, 115 mg/m2 per dose, read-out: MRTINF_pred): 13.5 h
- Tmax (in vivo, 115 mg/m2, Cycle 1 Day 15, Cohort B2, 115 mg/m2 per dose): 1 h
- AUC(0-t) [4]: 8210 ng·h/mL
- AUC(0-inf) (in vivo, 115 mg/m2, Cycle 1 Day 15, Cohort A1, 115 mg/m2 per dose, individual patients, read-out: AUCINF_obs): 10800 ng·h/mL
- AUC(0-inf) (in vivo, 115 mg/m2, Cycle 1 Day 15, Cohort A1, 115 mg/m2 per dose, individual patients, read-out: AUCINF_pred): 10700 ng·h/mL
- AUC (in vivo, 115 mg/m2, Cycle 1 Day 15, Cohort A1, 115 mg/m2 per dose, individual patients, read-out: AUC_TAU): 8210 ng·h/mL
- AUC (in vivo, 115 mg/m2, Cycle 1 Day 15, Cohort A1, 115 mg/m2 per dose, individual patients, read-out: AUCall): 8210 ng·h/mL
- Cmax [4]: 1350 ng/mL
- MRT inf (in vivo, 115 mg/m2, Cycle 1 Day 15, Cohort A1, 115 mg/m2 per dose, individual patients, read-out: MRTINF_obs): 15.8 h
- MRT inf (in vivo, 115 mg/m2, Cycle 1 Day 15, Cohort A1, 115 mg/m2 per dose, individual patients, read-out: MRTINF_pred): 15.7 h
- AUC(0-t) [5]: 5370 ng·h/mL
- AUC(0-inf) (in vivo, 115 mg/m2, Cycle 1 Day 15, patient N0773, Cohort B2, 115 mg/m2 per dose, Dose 75, read-out: AUCINF_obs): 6990 ng·h/mL
- AUC(0-inf) (in vivo, 115 mg/m2, Cycle 1 Day 15, patient N0773, Cohort B2, 115 mg/m2 per dose, Dose 75, read-out: AUCINF_pred): 6860 ng·h/mL
- AUC (in vivo, 115 mg/m2, Cycle 1 Day 15, patient N0773, Cohort B2, 115 mg/m2 per dose, Dose 75, read-out: AUC_TAU): 6950 ng·h/mL
- AUC (in vivo, 115 mg/m2, Cycle 1 Day 15, patient N0773, Cohort B2, 115 mg/m2 per dose, Dose 75, read-out: AUCall): 5370 ng·h/mL
- Cmax [5]: 1780 ng/mL
- MRT inf (in vivo, 115 mg/m2, Cycle 1 Day 15, patient N0773, Cohort B2, 115 mg/m2 per dose, Dose 75, read-out: MRTINF_obs): 4.18 h
- MRT inf (in vivo, 115 mg/m2, Cycle 1 Day 15, patient N0773, Cohort B2, 115 mg/m2 per dose, Dose 75, read-out: MRTINF_pred): 3.73 h
- AUC (in vivo, 115 mg/m2, steady state, Cohort A1, 115 mg/m^2 QD, (CV), read-out: AUCtau): 8640 ng·h/mL
- Cmax (in vivo, 115 mg/m2, steady state, Cohort A1, 115 mg/m^2 QD, (CV)): 1210 ng/mL
- Tmax (in vivo, 115 mg/m2, steady state, Cohort A1, 115 mg/m^2 QD): 1.5 h
- AUC (in vivo, 115 mg/m2, steady state, Cohort B2 (with topotecan/cyclophosphamide), 115 mg/m^2 QD, (CV), read-out: AUCtau): 7950 ng·h/mL
- Cmax (in vivo, 115 mg/m2, steady state, Cohort B2 (with topotecan/cyclophosphamide), 115 mg/m^2 QD, (CV)): 1460 ng/mL
- Tmax (in vivo, 115 mg/m2, steady state, Cohort B2 (with topotecan/cyclophosphamide), 115 mg/m^2 QD): 1 h
- AUC (in vivo, 150 mg per dose, Cycle 1 Day 1, Cohort A2, 150 mg per dose, read-out: AUCall): 8360 ng·h/mL
- AUC (in vivo, 150 mg per dose, Cycle 1 Day 15, Cohort A2, 150 mg per dose, read-out: AUCall): 8300 ng·h/mL
- AUC (in vivo, 150 mg, Cycle 1 Day 15, Cohort A2, 150 mg per dose, read-out: AUC_TAU): 8300 ng·h/mL
- AUC (plasma, oral, 45 mg/m2, Cohort A1, 45 mg/m2 per dose, C1D15, Geometric Mean, N 3, read-out: AUC_TAU): 2470 ng·h/mL
- Cmax [6]: 355 ng/mL
- Tmax [6]: 1.26 h
- AUC (plasma, oral, 45 mg/m2, Cohort A1, 45 mg/m2 per dose, C1D15, Median, N 3, read-out: AUC_TAU): 3220 ng·h/mL
- Cmax [7]: 287 ng/mL
- Tmax [7]: 1 h
- Tmax (plasma, oral, 45 mg/m2, Cohort A1, 45 mg/m2 per dose, C1D15, individual patient): 1 h
- MRT last [8]: 7.18 h
- Tmax [8]: 1 h
- Tmax (plasma, oral, 45 mg/m2, Cycle 1 Day 15, Cohort A1, 45 mg/m2 per dose, individual patients): 1 h
- AUC (plasma, oral, 45 mg/m^2, steady state (cycle 1, day 15), Cohort A1, 45 mg/m^2 QD, (CV), read-out: AUCtau): 2470 ng·h/mL
- Cmax (plasma, oral, 45 mg/m^2, steady state (cycle 1, day 15), Cohort A1, 45 mg/m^2 QD, (CV)): 354 ng/mL
- Tmax (plasma, oral, 45 mg/m^2, steady state (cycle 1, day 15), Cohort A1, 45 mg/m^2 QD): 1 h
- AUC (plasma, oral, 60 mg/m2, Cohort A1, 60 mg/m2 per dose, C1D15, Geometric Mean, N 3, read-out: AUC_TAU): 3930 ng·h/mL
- Cmax (plasma, oral, 60 mg/m2, Cohort A1, 60 mg/m2 per dose, C1D15, Geometric Mean, N 3): 492 ng/mL
- AUC (plasma, oral, 60 mg/m2, Cohort A1, 60 mg/m2 per dose, C1D15, Median, N 3, read-out: AUC_TAU): 4140 ng·h/mL
- Cmax [9]: 558 ng/mL
- Tmax [9]: 2 h
- AUC (plasma, oral, 60 mg/m2, Cohort A1, 60 mg/m2 per dose, C1D15, individual patient, read-out: AUC_TAU): 4140 ng·h/mL
